From patent US6362166B1, “Antipicornaviral compounds and methods for their use and preparation” (Agouron Pharmaceuticals, Inc., priority 1996, dated 2002) come the findings set out here.

Where two headings read alike, the source gives them in different places.

In data set [1] the target is T1, Recombinant Rhinovirus 3C protease (RVP) serotype-14 (Human rhinovirus 14, UniProt P03303).
T1 construct: Recombinant Rhinovirus 3C proteases from serotypes 14, 16, 2 or 89; made in house
As to the kind of experiment: Inhibition of Rhinovirus Protease (fluorescence resonance energy transfer assay), serotype 14. It counts as biochemical, human rhinovirus (HRV). Particulars: for kobs/I: progress curves in enzyme start experiments; for kinact/KI: pH 7.6, read-out: kobs/I.

The test system of data set [2] is HRV-14. As to the kind of experiment: Antirhinoviral HI-HeLa Cell Culture Assay (Cell Protection Assay, XTT dye reduction). The format is cell-based, human rhinovirus (HRV) serotype-14. Particulars: HI-HeLa cells infected with HRV-14, m.o.i. 0.13, two days, XTT, read-out: EC50. In short, it runs like this:
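Protection measured via XTT dye reduction (450/650 nm) two days after compound treatment of HI-HeLa cells, mock-infected or infected with cDNA-derived HRV-14 at m.o.i. 0.13. CC50 divided by EC50 gives the therapeutic index.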

Data set [3] relates to HI-HeLa cells. As to the kind of experiment: Cytotoxicity in mock-infected HI-HeLa cells (antirhinoviral assay, XTT). The format is cell-based. A general note: Formazan colour is commonly taken as a measure of viable cells.
Data set [4] concerns CVB-3. As to the kind of experiment: Anticoxsackieviral HI-HeLa Cell Culture Assay (XTT dye reduction). It counts as cell-based, Coxsackie strain B-3 (CVB-3). Particulars: HI-HeLa cells infected with CVB-3, m.o.i. 0.08, one day. The protocol:
(§1) Specifically, HI-HeLa cells were infected wtih […] at a multiplicity of infection (m.o.i.) of 0.08 or mock-infected with medium only. Infected or mock-infected cells were resuspended at 8×10^5 cells per mL and incubated with appropriate concentrations of compound. One day later, XTT/PMS were added to test plates and the amount of formazan produced was quantified spectrophotometrically at 450/650 nm. […] The therapeutic index (TI) was calculated by dividing the CC50 by the EC50.
(§2) The Coxsackie strain B-3 (CVB-3) was purchased from American Type Culture Collection (ATCC). Virus stocks were propgated and antiviral assays were performed in Hi-HeLa cells (ATCC). Cells were grown in Minimal Essential Medium with 10% fetal bovine serum.

The test system of data set [5] is HI-HeLa cells. As to the kind of experiment: Cytotoxicity in mock-infected HI-HeLa cells (anticoxsackieviral assay, XTT). The format is cell-based. The protocol: as §1, with “The ability of compounds to protect calls against CVB-3 infection was measured by the XTT dye reduction method, which is described in Weislow, O. S., R. Kiser, D. L. Fine, J. Bader, R. H. Shoemaker, and M. R. Boyd, 1989, J. Natl. Cancer Inst. 81:577-586, which is incorporated herein by reference. Specifically,” for “Specifically,”
as §2

Data set [6] in a line: Cytotoxicity in mock-infected HI-HeLa cells (antirhinoviral assay, XTT). The format is cell-based. Particulars: human.
For data set [7], the system named is Human Rhinovirus-serotype 10 (HRV-10). As to the kind of experiment: Normal Human Bronchial Epithelial Cell Assay (MTT). It counts as cell-based. Particulars: normal human bronchial cells, HRV-10 at m.o.i. 10, 3-4 days at 34° C., read-out: ED50 (the source's name). As for the experimental part: Normal human bronchial cells were obtained from cadavers and cultured. The cells were plated at 2×10^4 per well in a […] plate. They were allowed to adhere and grow for 24 hours in 200 μL of serum-free bronchial/tracheal epithelial cell growth medium at 37° C. with 5% CO2. Human Rhinovirus-serotype 10 (HRV-10) was purchased from American Type Culture Collection (ATCC). To start the assay, the supernatant was removed, and HRV-10 at an m.o.i. of 10 (virus particles/cell) was added to each well along with the appropriate amount of compound of formula I or II. The plate was then incubated at 34° C. After 3 hours the supernatant was removed, and 200 μL of media was added along with the same concentration of compound as used in the beginning of the assay. The plates were incubated for 3-4 days at 34° C. To determine the amount of cell growth, an MTT assay (0.5 mgs/mL), as described in Mosmann, T. J. J. Immunol. Methods 1983, 65, 55-63, which is incorporated herein by reference, was performed on the cells, and the plate was read at an optical density of 540 nm. The compounds were tested against control compound Pirodavir, obtained from Janssen Pharmaceuticals. The EC50 was measured as described above for the HI-HeLa Cell Culture Assay.

Data set [8] is described as follows: Cytotoxicity in mock-infected HI-HeLa cells (anticoxsackieviral assay, XTT). It counts as cell-based. Particulars: human; mock-infected HI-HeLa cells; one day; XTT. As for the experimental part:
as §1, with “The ability of compounds to protect calls against CVB-3 infection was measured by the XTT dye reduction method, which is described in Weislow, O. S., R. Kiser, D. L. Fine, J. Bader, R. H. Shoemaker, and M. R. Boyd, 1989, J. Natl. Cancer Inst. 81:577-586, which is incorporated herein by reference. Specifically,” for “Specifically,”
as §2

Setting [9] is: RVP serotype-14, 10 minute preincubation, substrate start, read-out: INHIB (Ki).
Where [10] appears, read: mock-infected HI-HeLa cells, two days, XTT, read-out: CC50.
Where [11] appears, read: mock-infected HI-HeLa cells, one day, XTT, read-out: CC50.

T1 sequence (P03303 1538-1719): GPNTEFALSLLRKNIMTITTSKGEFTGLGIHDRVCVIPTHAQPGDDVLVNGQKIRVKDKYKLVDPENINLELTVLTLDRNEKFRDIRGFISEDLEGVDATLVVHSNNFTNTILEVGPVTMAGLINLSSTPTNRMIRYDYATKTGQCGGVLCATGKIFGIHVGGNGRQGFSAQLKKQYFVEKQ

Usually Ki stands for the equilibrium dissociation constant of an inhibitor or competing ligand from its target. Broadly, the CC50 is the concentration that lowers cell viability or growth by half. As to `CC(C)C[C@H](NC(=O)OCc1ccccc1)C(=O)N[C@@H](Cc1ccccc1)C(=O)N[C@H](/C=C/c1ccccn1)CCC(N)=O` [Compound 23], the Ki in data set [1] (setting [9]) came to 177 µM. In addition, in [1] (RVP serotype-14), the kobs/I was found to be 120 M⁻¹ s⁻¹. The EC50 in [2] and in data set [4] was more than 100 µM throughout. Also, the CC50 in data set [3] (setting [10]) and in [5] (setting [11]) was more than 100 µM in each case.

As for `CC(C)C[C@H](NC(=O)OCc1ccccc1)C(=O)N[C@@H](Cc1ccccc1)C(=O)N[C@H](/C=C/C(=O)N1CCc2ccccc21)CCC(N)=O` [Compound 85], in data set [1], the Ki turned out to be 3 µM and the kinact/KI worked out at 6500 M⁻¹ s⁻¹. For the same compound, in data set [2] (Rhinovirus B, HRV14, 48 h), the EC50 amounted to 16 µM. The CC50 at 2 days in data set [6] (setting [10]) is more than 320 µM. Besides, the EC50 in data set [7] (Epithelial cell) came out at 0.005 µM.

`CCOC(=O)/C=C/[C@H](CCC(N)=O)NC(=O)[C@H](Cc1ccc(F)cc1)NC(=O)c1cc2c(OC)cccc2[nH]1` [Compound 27]: the Ki in data set [1] (setting [9]) turned out to be 20 µM. In addition, the kobs/I in data set [1] (RVP serotype-14) is recorded as 3,000 M-1 sec-1. The EC50 in data set [2] came out at 3.5 µM; in [7], 0.07 µM; in data set [4] it was 20 µM. In addition, the CC50 amounted to 160 µM in data set [3] (setting [10]) and 103 µM in data set [5] (setting [11]).

Consider `CCOC(=O)/C=C/[C@H](CNC(C)=O)NC(=O)[C@H](Cc1ccccc1)NC(=O)[C@H](CC(C)C)NC(=O)OCc1ccccc1` [Compound 4, Ethyl-3-[CBZ-L-Leu-L-Phe-L-(N-Ac-amino)-Ala]-E-Propenoate], for which the “INHIB (percent inhibition)” value in data set [1] (RVP serotype-14, 0.5 μM compound, 10 minute preincubation with 50 nM RVP) is 49(0.5) percent. Moreover, the kobs/I in data set [1] (RVP serotype-14) was found to be 790 M⁻¹ s⁻¹. The figures for the EC50 in [2] and in [7] were 2.2 µM and 0.15 µM, respectively. The compound also came in with a CC50 in data set [3] of more than 320 µM.

Take `Cc1cc(CCCCCOc2c(Cl)cc(C3=NCCO3)cc2Cl)on1` [WIN 54954, reference compound]: the EC50 is 2.13 µM in data set [2] and more than 100 µM in data set [4]. Further, the values for the CC50 in [3] (setting [10]) and in data set [5] (setting [11]) were more than 63 µM and more than 100 µM, respectively.

As to `COC(=O)/C=C/[C@H](CCC(N)=O)NC(=O)[C@H](Cc1ccccc1)NC(=O)[C@H](CC(C)C)NC(=O)OCc1ccccc1` [Compound 11, Methyl-3-(CBZ-L-Leu-L-Phe-L-Gln)-E-Propenoate], the Ki in data set [1] (setting [9]) turned out to be 28 µM. Also, in data set [1] (RVP serotype-14), the kobs/I is given as 20,000 M-1 sec-1. In addition, the EC50 in data set [2] is 1.3 µM; in data set [7] it was 0.0007 µM; in data set [4] it was 8.9 µM. The CC50 in data set [3] and in [5] (setting [11]) was more than 320 µM each time.

`CC(C)C[C@H](NC(=O)OCc1ccccc1)C(=O)N[C@@H](Cc1ccccc1)C(=O)N[C@H](/C=C/C(=O)N1CCCC1)CCC(N)=O` [Compound 21, 1-Pyrrolidin-1-yl-3-(CBZ-L-Leu-L-Phe-L-Gln)-E-Propenone]: in [1], the Ki was determined as 9.9 µM and the kinact/KI was determined as 2100 M⁻¹ s⁻¹. The EC50 in [2] (Rhinovirus B, HRV14, 48 h) amounted to 22.4 µM. In addition, the CC50 at 2 days in data set [6] (setting [10]) is more than 100 µM. The compound also displayed an EC50 in data set [4] (24 h) of 158 µM. For the same compound, the CC50 at 1 day in [8] is more than 320 µM.

For the compound `CC(C)C[C@H](NC(=O)OCc1ccccc1)C(=O)N[C@@H](Cc1ccccc1)C(=O)N[C@H](/C=C/C(=O)N1CC=CC1)CCC(N)=O` [Compound 41], the kobs/I in [1] (RVP serotype-14) is on record as 8,464 M-1 sec-1. For the same compound, the EC50 in data set [2] was 56 µM; in data set [4], more than 100 µM. Moreover, the CC50 in data set [3] is 56 µM; in data set [5], more than 100 µM.

With `CC(C)C[C@H](NC(=O)OCc1ccccc1)C(=O)N[C@@H](Cc1ccccc1)C(=O)N[C@H](/C=C/C(=O)c1ccccc1)CCC(N)=O` [Compound 24, 1-Phenyl-3-(CBZ-L-Leu-L-Phe-L-Gln)-E-Propenone], the kobs/I in data set [1] (RVP serotype-14) is listed as 500,000 M-1 sec-1. Besides, the EC50 in data set [2] stood at 4 µM; in [4], 10 µM. The cytotoxic concentration (CC50) in data set [3] (setting [10]) was 16 µM; in data set [5] (setting [11]), 10 µM.

In the case of `CCOC(=O)/C=C/[C@H](CC[S+](C)[O-])NC(=O)[C@H](Cc1ccccc1)NC(=O)[C@H](CC(C)C)NC(=O)OCc1ccccc1` (stereo partly drawn) [Compound 12, Ethyl-3-[CBZ-L-Leu-L-Phe-L-Met(sulfoxide)]-E-propenoate], the Ki in [1] is 4.3 µM. Moreover, in data set [1], the kinact/KI turned out to be 2200 M⁻¹ s⁻¹. Further, the EC50 in data set [2] (Rhinovirus B, HRV14, 48 h) turned out to be 1.6 µM; in data set [7] (Epithelial cell), 0.004 µM. The CC50 at 2 days in data set [6] (setting [10]) is more than 100 µM.

In the case of `CON(C)C(=O)/C=C/[C@H](CCC(N)=O)NC(=O)[C@H](Cc1ccccc1)NC(=O)[C@H](CC(C)C)NC(=O)OCc1ccccc1` [Compound 37], in data set [1], the Ki was found to be 18.8 µM and the kinact/KI came to 5900 M⁻¹ s⁻¹. The EC50 in [2] (Rhinovirus B, HRV14, 48 h) was 4 µM. Besides, the cytotoxic concentration (CC50) at 2 days in [6] (setting [10]) was more than 100 µM. Further, the EC50 in [4] (24 h) is 17.8 µM. For the same compound, the CC50 at 1 day in [8] is more than 100 µM.

On to `CCOC(=O)c1ccc(OCCC2CCN(c3ccc(C)nn3)CC2)cc1` [Pirodavir, reference compound], for which the EC50 in data set [2] (Rhinovirus B, HRV14, 48 h) was 0.03 µM; in data set [7] (Epithelial cell), 0.0075 µM; in data set [4] (24 h) it was more than 100 µM. The same compound displayed a half-maximal cytotoxic concentration (CC50) at 2 days in [6] of more than 10 µM. In data set [8], this compound registered a CC50 at 1 day of more than 100 µM.

Broadly, the melting point is the temperature of the solid-liquid transition. As to `CC(C)C[C@H](NC(=O)OCc1ccccc1)C(=O)N[C@@H](Cc1ccccc1)C(=O)N[C@H](/C=C/C(=O)N(C)C)CCC(N)=O` [Compound 22, N,N-Dimethyl-3-(CBZ-L-Leu-L-Phe-L-Gln)-E-Propenamide], the melting point was 174 to 175 °C (dec.). In [1], the Ki was 4.3 µM and the kinact/KI came to 1300 M⁻¹ s⁻¹. In addition, the EC50 in [2] (Rhinovirus B, HRV14, 48 h) came out at 56.2 µM. The CC50 at 2 days in data set [6] (setting [10]) amounted to 251 µM.

For the compound “Ethyl-3-[CBZ-L-Leu-L-Phe-L-[N-(2-pyrrolidinone)]-Ala]-E-Propenoate [Compound 5]”, the Ki in [1] (setting [9]) was found to be 7.1 µM. In data set [1] (RVP serotype-14), the kobs/I came out at 221 M⁻¹ s⁻¹. In addition, the EC50 was determined as 1.6 µM in data set [2] and 0.001 µM in data set [7]. In addition, in data set [3], the midpoint of cytotoxicity, the CC50, lay at 251 µM.

Compound `CCOC(=O)/C(F)=C\[C@H](CCC(N)=O)NC(=O)[C@H](Cc1ccccc1)NC(=O)[C@H](CC(C)C)NC(=O)OCc1ccccc1` [Compound 8, Ethyl-2-Fluoro-3-(CBZ-L-Leu-L-Phe-L-Gln)-E-Propenoate] displayed a melting point of 210 to 211 °C. In addition, in data set [1], the Ki stood at 36 µM and the kinact/KI stood at 61 M⁻¹ s⁻¹. For the same compound, the EC50 in data set [2] (Rhinovirus B, HRV14, 48 h) was more than 320 µM. The CC50 at 2 days in [6] (setting [10]) was more than 320 µM.
